Values quoted from earlier work, collected in patent US20200357489A1, “DEEP LEARNING-BASED QUICK AND PRECISE HIGH-THROUGHPUT DRUG SCREENING SYSTEM” (Shanghai Tongji Hospital, priority 2018, published 2020).
Read-outs that look alike come from different tables or passages of the source.

Legend:
[1] = system: HepG2 cells
[2] = system: A549 cells

COc1cc(/C=C/C(=O)CC(=O)/C=C/c2ccc(O)c(OC)c2)ccc1O [Cur, curcumin]
efficacy classification ([1]; 5 μg/ml Cur): Low effcacy | efficacy classification ([1]; 10 μg/ml Cur): Moderate | efficacy classification ([1]; 20 μg/ml Cur): High efficacy

COc1cc([C@@H]2c3cc4c(cc3[C@@H](O[C@@H]3O[C@@H]5CO[C@@H](C)O[C@H]5[C@H](O)[C@H]3O)[C@H]3COC(=O)[C@H]23)OCO4)cc(OC)c1O [VP16, etoposide]
efficacy classification ([2]; 50 μg/ml VP16): Low effcacy | efficacy classification ([2]; 100 μg/ml VP16): Moderate | efficacy classification ([2]; 200 μg/ml VP16): High efficacy
